This note sets out measurements from US8143212B2 (Vicuron Pharmaceuticals Inc., priority 2002, dated 2012).

Holding throughout (assay type): cell-based
Test [1] relates to Candida albicans SKF 2270. Kind of test: MIC by broth microdilution (NCCLS) (Tables 42, 44). The settings on record: Candida albicans SKF 2270 (Table 42).
The subject of another test is gram-negative bacteria. Kind of test: MIC by broth microdilution (NCCLS) (Table 42). The protocol:
(§1) Before dissolution, each sample was analyzed by HPLC and quantified.
(§2) The microorganisms used were reference strains obtained from the American Type Culture Collection (ATCC) (Rockville, Md.), SmithKline and French Laboratories (SKF), and the Upjohn Company (UC) (Kalamazoo, Mich.).
(§3) MICs were determined by the broth microdilution methodology following the standard NCCLS procedure (NCCLS Document M7-A6, Vol. 23, No. 2, “Methods for dilution antimicrobial susceptibility tests for bacteria that grow aerobically.” Approved Guideline. January 2003, which can be herein incorporated by reference in its entirety), with or without 30% adult bovine serum (BS) (PAA Laboratories GMBH, Haidmannweg Pasching Austria), using bacterial innocula at approximately 5×10^5 CFU/ml. The media employed included cation-adjusted Müller Hinton broth (Difco Laboratories, Detroit, Mich.) that was used that was adjusted with CaCl2 and MgCl2 to a final concentration of 20 mg/L and 10 mg/L, respectively. Tests were read following 20-24 hours of incubation at 35° C.

For another test, the system named is gram positive bacteria. Kind of test: MIC by broth microdilution (NCCLS), with or without 30% bovine serum (Table 42). As to the method:
as §1, §2, §3
Background: In broth dilution the organism is exposed to a series of concentrations in liquid medium.

[2] abbreviates: Pseudomonas aeruginosas ATCC 10145.
The mark [3] stands for this setting: E. faecalis ATCC29212 ref. strain.
The mark [4] stands for this setting: Enterococcus faecalis ATCC 7080.
Setting [5] is: S. aureus ATCC 29213 ref. strain.
[6] abbreviates: Staphylococcus aureus Smith ATCC 19636.
Setting [7] is: Streptococcus pyrogenes SKF 13400.

Converted amounts (≈) assume the structure as drawn.

For `CC1(C)S[C@@H]2[C@H](NC(=O)Cc3ccccc3)C(=O)N2[C@H]1C(=O)O` [Penicillin G], the minimal inhibitory concentration (MIC) (usually the smallest concentration in the dilution series that meets the test's criterion for growth inhibition) in test [1] is more than 32 mg/L; in the test on gram-negative bacteria (E. coli ATCC25922 ref. strain), more than 32 mg/L; in the test on gram-negative bacteria (Escherichia coli SKF 12140), more than 32 mg/L; in the test with gram-negative bacteria (Proteus vulgaris ATCC 881) it was more than 32 mg/L; with gram-negative bacteria (setting [2]) it was more than 32 mg/L; in the test on gram positive bacteria (Bacillus subtilis ATCC 6633), “≦0.03 mg/L”. Besides, the MIC is on record as 4 mg/L (≈ 12 µM) in the test with gram positive bacteria (setting [3]); 32 mg/L (≈ 95.7 µM) in the test on gram positive bacteria (setting [4]); 8 mg/L (≈ 23.9 µM) with gram positive bacteria (setting [5]); 0.06 mg/L with gram positive bacteria (S. aureus Smith + 30% BS); more than 32 mg/L with gram positive bacteria (S. epidermidis ATCC 12228); “≦0.03 mg/L” with gram positive bacteria (S. pneumoniae Felton UC41). For the same molecule, the MIC in the test on gram positive bacteria (setting [6]) was 0.06 mg/L (≈ 0.179 µM); against gram positive bacteria (setting [7]) it was “≦0.03 mg/L”.

With `CN[C@H]1C(=O)N[C@@H]2Cc3ccc(cc3)Oc3cc4cc(c3O[C@@H]3O[C@H](C(=O)O)[C@@H](O)[C@H](O)[C@H]3NC(=O)CCCCCCCC(C)C)Oc3ccc(cc3Cl)[C@@H](O)[C@@H]3NC(=O)[C@H](NC(=O)[C@@H]4NC(=O)[C@@H](NC2=O)c2cc(cc(O)c2Cl)Oc2cc1ccc2O)c1ccc(O)c(c1)-c1c(O[C@H]2O[C@H](CO)[C@@H](O)[C@H](O)[C@@H]2O)cc(O)cc1[C@@H](C(=O)NCCCN(C)C)NC3=O` [Composition A0], the MIC in test [1] is on record as more than 64 mg/L; in the test with gram-negative bacteria (E. coli ATCC25922 ref. strain), more than 64 mg/L; against gram-negative bacteria (Escherichia coli SKF 12140), more than 64 mg/L; in the test on gram-negative bacteria (Proteus vulgaris ATCC 881), more than 64 mg/L; against gram-negative bacteria (setting [2]), more than 64 mg/L; in the test on gram positive bacteria (Bacillus subtilis ATCC 6633) it was “≦0.06 mg/L”. In addition, the MIC entry in the test with gram positive bacteria (setting [3]) is on record as “≦0.06 mg/L”; with gram positive bacteria (setting [4]) it was 0.125 mg/L (≈ 0.0693 µM); against gram positive bacteria (setting [5]), 0.125 mg/L (≈ 0.0693 µM); with gram positive bacteria (S. aureus Smith + 30% BS) it was 1 mg/L; against gram positive bacteria (S. epidermidis ATCC 12228), 0.125 mg/L (≈ 0.0693 µM); with gram positive bacteria (S. pneumoniae Felton UC41), 0.125 mg/L (≈ 0.0693 µM). Moreover, the minimum inhibitory concentration (MIC) against gram positive bacteria (setting [6]) amounted to 0.125 mg/L (≈ 0.0693 µM); against gram positive bacteria (setting [7]) it was 0.015 mg/L (≈ 0.00832 µM).

`CC(C)CCCCCCCCC(=O)N[C@H]1[C@H](Oc2c3cc4cc2Oc2ccc(cc2Cl)[C@@H](O)[C@@H]2NC(=O)[C@H](NC(=O)[C@@H]4NC(=O)[C@H]4NC(=O)[C@@H](Cc5ccc(cc5)O3)NC(=O)[C@H](N(C)C)c3ccc(O)c(c3)Oc3cc(O)c(Cl)c4c3)c3ccc(O)c(c3)-c3c(O[C@H]4O[C@H](CO)[C@@H](O)[C@H](O)[C@@H]4O)cc(O)cc3[C@@H](C(=O)NCCCN(C)C)NC2=O)O[C@H](C(=O)O)[C@@H](O)[C@@H]1O` [Composition B2, N^15,N^15-dimethyl dalbavancin B0] displayed an MIC range against gram-negative bacteria (representative panel of gram-negative bacteria) of 16 to 32 mg/L. Moreover, the “activity across the range of gram-positive bacteria” value with gram positive bacteria is recorded as “comparable to or greater than the activity of B0”.

As to `C[C@@H]1[C@H](O)[C@@H](C)/C=C/C=C/C=C/C=C/C=C/C=C/C=C/[C@H](O[C@@H]2O[C@H](C)[C@@H](O)[C@H](N)[C@@H]2O)C[C@@H]2O[C@](O)(C[C@@H](O)C[C@@H](O)[C@H](O)CC[C@@H](O)C[C@@H](O)CC(=O)O[C@H]1C)C[C@H](O)[C@H]2C(=O)O` [Amphotericin B], the MIC was 0.125 mg/L (≈ 0.135 µM) in test [1]; more than 64 mg/L against gram-negative bacteria (E. coli ATCC25922 ref. strain); more than 64 mg/L in the test with gram-negative bacteria (Escherichia coli SKF 12140); more than 64 mg/L with gram-negative bacteria (Proteus vulgaris ATCC 881); more than 64 mg/L with gram-negative bacteria (setting [2]); more than 64 mg/L with gram positive bacteria (Bacillus subtilis ATCC 6633). The MIC against gram positive bacteria (setting [3]), in the test with gram positive bacteria (setting [4]), against gram positive bacteria (setting [5]), with gram positive bacteria (S. aureus Smith + 30% BS), against gram positive bacteria (S. epidermidis ATCC 12228) and in the test with gram positive bacteria (S. pneumoniae Felton UC41) was more than 64 mg/L throughout. For the same molecule, the MIC in the test on gram positive bacteria (setting [6]) is recorded as more than 64 mg/L; with gram positive bacteria (setting [7]), 32 mg/L (≈ 34.6 µM).
